Laboratory results from patent US10004688B2, “Liposomal mupirocin” (priority 2014, dated 2018).
Converted amounts (≈) assume the structure as drawn.

Columns and labels:
[1] = Mupirocin solubility in buffers and solubilizer solutions; assay type: physicochemical
Experimental: Liposomes were prepared using the calcium acetate (CA) gradient method [Clerc S, Barenholz Y. 1995. Loading of amphipathic weak acids into liposomes in response to transmembrane calcium acetate gradients. Biochim Biophys Acta 1240:257-265]. Specifically, lipids in a mole ratio of 55:40:5 HSPC: cholesterol: mPEG DSPE were mechanically hydrated by stirring at 65° C. with 200 mM calcium acetate pH 5.5, at a weight ratio of 1:9. The liposomal dispersion was downsized by stepwise extrusion by the Northern Lipids (Burnaby, BC, Canada) extruder using polycarbonate filters starting with 3 times extrusion through a 400 nm pore size membrane, then 3 times through a 100 nm pore size membrane, and finally 10 times through a 50 nm pore size membrane. Liposomes were then dialyzed using a Cellu Sep regenerated cellulose membrane (Membrane Filtration Products, USA), against a 10% sucrose solution. In the case of HPCD-containing liposomes, lipids were hydrated by 200 mM calcium acetate pH 5.5 containing 15% (w/w) HPCD. Control HPCD liposomes were prepared by hydrating lipids with 15% (w/w) HPCD in phosphate buffer 200 mM pH 6.3. All other preparation steps (downsizing and dialysis) were the same as described above. Remote loading was performed by incubating at 65° C. for 10 min a solution of the drug with the liposome dispersion at a volume ratio of 1:1. Liposomes used for loading were freshly prepared and used within one week. Drug loading solutions were prepared in 200 mM phosphate buffer pH 6.3. High mupirocin concentrations in phosphate buffer pH 6.3 (28 mM) were achieved by vigorous stirring and 10 min sonication in a bath sonicator. Loading was also tested from 1 to 10% (w/w) HPCD solutions in phosphate buffer pH 6.3. High mupirocin concentration (28 mM) in 1% HPCD solution was achieved by vigorous stirring and sonication as described for phosphate buffer. Mupirocin solutions in higher HPCD concentrations (2.5-10%) were prepared by stirring only. Loading was also performed from propylene glycol (PG) and from polyethylene glycol (PEG) 400 solutions. In these cases, a stock solution of 100 mM mupirocin was prepared and diluted to the desired concentration with 200 mM phosphate buffer pH 6.3.
Mupirocin is not freely soluble in aqueous medium. Being a weak acid, its solubility increases with pH. Mupirocin was soluble in phosphate buffer 200 mM pH 6.3 up to a concentration of 15 mM. […] However, high concentrations (≥28 mM) in 1% HPCD required 10 min sonication in order to achieve a clear solution. It should be noted that the chromatographic profile of mupirocin in the different solutions tested was similar to that of a standard solution.

[2] = test system: Group A streptococcus (GAS); test: Mice necrotizing fasciitis model; assay type: in vivo, Female BALB/c mice
Experimental: Necrotizing fasciitis model was performed based on a published method [Hidalgo-grass, C. et al. Mechanisms of disease Effect of a bacterial pheromone peptide on host chemokine degradation in group A streptococcal necrotising soft-tissue infections. 363, (2004)]. Specifically the working protocol included:
Female BALB/c mice, 10 g weight and at the age of 3-4 weeks were selected.
1st Day: Bacteria were seeded on blood-agar plates and incubated at 37° C. THY medium was prepared, autoclaved and kept at room temperature.
2nd Day: plates were taken from the incubator and placed at room temperature.
4th Day: bacteria were transferred from the plates to 5 ml THY tube (warmed in the incubator).
5th Day: 2 ml bacteria were transferred from the 5 ml THY tube to 50 ml THY tube. Bacteria were grown to early logarithmic phase (O.D600=0.3-0.4), washed with PBS and suspended in PBS to O.D600=0.8 which correlates to 10^8 bacteria in injected volume of 100 μl. The obtained bacteria volume was divided to vials according to the number of mice in the study. Each dilution was seeded on blood agar plates and counting colonies on the day after.
On the 5th day, mice hair was removed from the center of mice back and bacteria were injected subcutaneously.
Disease condition was followed according to the Table 2A below.
Specifically, Group A streptococcus (GAS) injection (0.75×10^8 CFU) was administered to all study groups. The drug was administered by IV injection of 100 μl formulation. Eachliposomal mupirocin dose was 45 mg/kg. Each free mupirocin dose was 50 mg/kg.

Neisseria gonorrhoeae = details: cited from earlier work
[3] = test system: gram-positive bacteria, including the methicillin-resistant Staphylococcus aureus (MRSA) and Streptococcus pneumoniae; details: gram-positive bacteria incl. MRSA and Streptococcus pneumoniae; cited from earlier work
serum protein = details: cited from earlier work
[4] = literature data, free mupirocin; cited from earlier work
[5] = group 2: free drug 50 mg/kg IV 3 h before and 3 and 24 h after GAS injection (150 mg/kg/day), 24 h after challenge
[6] = group 2: free drug 50 mg/kg IV 3 h before and 3 and 24 h after GAS injection (150 mg/kg/day), 48 h after challenge
[7] = group 2: free drug 50 mg/kg IV 3 h before and 3 and 24 h after GAS injection (150 mg/kg/day), 72 h after challenge
[8] = group 2: free drug 50 mg/kg IV 3 h before and 3 and 24 h after GAS injection (150 mg/kg/day), 96 h after challenge

## C/C(=C\C(=O)OCCCCCCCCC(=O)O)C[C@@H]1OC[C@H](C[C@@H]2O[C@H]2[C@@H](C)[C@H](C)O)[C@@H](O)[C@H]1O [Mupirocin, 9-[(E)-4-[(2S,3R,4R,5S)-3,4-dihydroxy-5-[[(2S,3S)-3-[(2S,3S)-3-hydroxybutan-2-yl]oxiran-2-yl]methyl]oxan-2-yl]-3-methylbut-2-enoyl]oxynonanoic acid]
[1]; HPCD solution in phosphate buffer, aqueous with cosolvent or surfactant or cyclodextrin, thermodynamic from solid, HPCD solutions of 1-10% w/w in phosphate buffer pH 6.3
  solubility: > 34 mM
[1]; PEG 400, organic solvent or mixture
  solubility: ~100 mM
[1]; aqueous buffer, thermodynamic from solid, phosphate buffer 200 mM pH 6.3, without vigorous stirring and sonication
  solubility: ≤ 15 mM
[1]; aqueous buffer, thermodynamic from solid, phosphate buffer pH 6.3, after vigorous stirring and sonication
  solubility at 10 min: ~28 mM (≈ 14 mg/mL)
[1]; calcium acetate solution, aqueous buffer, calcium acetate 200 mM pH 5.5
  solubility: < 2 mg/mL
[1]; organic solvent or mixture, PG (propylene glycol)
  solubility: ~100 mM
[1]; pH 5.5
  increase of solubility: not more than 10 fold
[2]; group 2: free drug 50 mg/kg IV 3 h before and 3 and 24 h after GAS injection (150 mg/kg/day), 24 h after bacteria challenge
  % weight change: −7%
[2]; [5]
  Average mice weight: 12.5 g
  Description of mice movement: Regular
  Eyes appearance: Open eyes
  Hair appearance: Rough hair
  Mice mortality: 0
  Wound appearance: No wound
[2]; [6]
  Average mice weight: 11.7 g
  Description of mice movement: Regular
  Eyes appearance: Open eyes
  Hair appearance: Rough hair
  Mice mortality: 0
[2]; [7]
  Average mice weight: 12.3 g
  Description of mice movement: Regular
  Eyes appearance: Open eyes
  Mice mortality: 0
[2]; [8]
  Average mice weight: 12.7 g
  Description of mice movement: Regular
  Eyes appearance: Open eyes
  Mice mortality: 0
[2]; mice, GAS s.c. challenge, IV treatment
  mortality: did not show mortality
[2]; mice, GAS s.c. challenge, IV treatment, listed as free drug
  development of disease / symptoms: developed the disease 24 h after bacteria challenge
[2]; mice, GAS s.c. challenge, IV treatment, listed as free mupirocin
  development of disease / symptoms: developed the disease symptoms
Neisseria gonorrhoeae
  MIC: 0.05 mg/L (≈ 0.0999 µM)
[3]
  activity in vitro: active in vitro
Serum protein
  protein binding affinity: 96.5%
[4]
  elimination half-life: 20 to 40 min
